Reference: US20060166999A1, “Use of microsomal triglyceride transfer protein (MTP) inhibitors for reducing the number of postprandial triglyceride-rich lipoprotein particles (PPTRL)” (Bayer Aktiengesellschaft, priority 2000, published 2006)

Tests used:
ApoE-knockout mice = test: Long-term feeding experiment with ApoE-knockout mice; assay type: in vivo; conditions: ApoE-knockout mice on fat-containing Western diet; 5 ppm with the feed; after 13 months; over half of the untreated mice were dead
Description: Long-Term Feeding Experiment with ApoE-Knockout Mice
ApoE-knockout mice received a fat-containing diet (0.15% cholesterol, 21.4% crude fat, 19% casein; “Western diet”). The compound of Example 48 was administered in a proportion of 5 ppm with the feed to the treated group, while the control group received the food without active ingredient. After 13 months, over half of the untreated mice were dead, whereas 23 of 25 animals in the treated group were still alive.
It is known from the literature that the ApoE-knockout mice used die from myocardial infarctions and manifestations of neuronal degeneration [Caligiuri, G., et al., Proc. Natl. Acad. Sci. USA, 96, 6920-6924 (1999); Walker, L. C. Am. J. Pathol., 151, (5), 1371-1377 81997)].

atherosclerotic plaques = conditions: mouse test; Zaiss et al., Circulation 100 (18, Suppl. I):258 Abstr. 1343 (1999); cited from earlier work

Compound | animals in the treated group still alive (ApoE-knockout mice) | formation of atherosclerotic plaques (atherosclerotic plaques)
Cc1cc(C)c2c3ccccc3n(Cc3ccc([C@@H](C(=O)N[C@@H](CO)c4ccccc4)C4CCCC4)cc3)c2n1 [Example 48, (2S)-2-Cyclopentyl-2-[4-(2,4-dimethyl-pyrido[2,3-b]indol-9-ylmethyl)-phenyl]-N-(2-(1R)-hydroxy-1-phenyl-ethyl)-acetamide] | 23 of 25 | –
implitapide | – | prevents the formation of atherosclerotic plaques
